From patent EP3502102A1, “STING INHIBITORS” (ECOLE POLYTECHNIQUE FEDERALE DE LAUSANNE (EPFL), priority 2017, dated 2019)

What was measured:
[1] = molecular target: T1, TBK1 (Homo sapiens, UniProt Q9UHD2); assay: IFN-beta luciferase reporter in HEK293T cells transfected with TBK1; format: cell-based; details: 0.01-5µM
T1 construct: expressed in transfected cells; host or cells: HEK293T
T1 sequence (Q9UHD2 1-729): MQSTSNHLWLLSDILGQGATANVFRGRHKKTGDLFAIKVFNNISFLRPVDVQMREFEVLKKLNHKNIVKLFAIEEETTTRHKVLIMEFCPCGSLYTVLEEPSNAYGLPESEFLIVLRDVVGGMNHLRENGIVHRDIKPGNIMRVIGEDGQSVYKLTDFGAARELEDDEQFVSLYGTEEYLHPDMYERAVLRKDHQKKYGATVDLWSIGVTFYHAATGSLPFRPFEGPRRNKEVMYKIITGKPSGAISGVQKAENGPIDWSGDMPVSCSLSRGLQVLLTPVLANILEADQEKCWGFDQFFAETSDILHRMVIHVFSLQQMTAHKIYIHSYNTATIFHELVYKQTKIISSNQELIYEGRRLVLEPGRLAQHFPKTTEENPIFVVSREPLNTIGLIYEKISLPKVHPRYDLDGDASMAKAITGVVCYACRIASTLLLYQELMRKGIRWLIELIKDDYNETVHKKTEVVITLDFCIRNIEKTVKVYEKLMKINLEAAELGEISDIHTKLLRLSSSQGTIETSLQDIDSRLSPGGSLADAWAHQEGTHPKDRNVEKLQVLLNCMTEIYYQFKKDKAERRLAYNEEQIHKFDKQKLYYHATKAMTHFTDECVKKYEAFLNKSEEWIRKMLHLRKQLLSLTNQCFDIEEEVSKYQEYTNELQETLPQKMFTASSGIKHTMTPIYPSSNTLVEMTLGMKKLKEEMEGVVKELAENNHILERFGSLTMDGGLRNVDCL

[2] = molecular target: T2, STING (Mus musculus, UniProt Q3TBT3); assay: CMA-induced serum cytokines in mice; format: in vivo, C57BL/6 mice; parameters: tissue Jackson Laboratories 000664; host or cells: whole animal, C57BL/6J mice; details: pre-treated 1 h or 4 h before i.p. CMA; serum 4 h later
T2 sequence (Q3TBT3 1-378): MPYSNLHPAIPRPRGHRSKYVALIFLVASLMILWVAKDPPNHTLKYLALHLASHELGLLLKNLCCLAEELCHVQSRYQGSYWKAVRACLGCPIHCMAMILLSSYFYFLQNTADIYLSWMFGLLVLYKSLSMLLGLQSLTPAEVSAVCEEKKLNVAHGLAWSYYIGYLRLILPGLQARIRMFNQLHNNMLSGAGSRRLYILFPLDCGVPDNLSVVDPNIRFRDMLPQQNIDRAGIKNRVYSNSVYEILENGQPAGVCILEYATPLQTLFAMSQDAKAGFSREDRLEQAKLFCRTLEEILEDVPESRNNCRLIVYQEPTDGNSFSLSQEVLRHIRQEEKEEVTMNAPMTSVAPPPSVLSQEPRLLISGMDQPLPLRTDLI

[3] = molecular target: T2, STING; assay: Metabolic labelling with [3H] palmitate, Flag-STING in HEK293T cells; format: cell-based; parameters: expressed in transfected cells; host or cells: HEK293T; details: HEK293T expressing Flag-STING; 1 µM; CMA 2 h
Protocol: Reporter activity was measured 16 h after compound treatment. A nonlinear regression analysis was performed. […] Circles indicate substitutes compared to C-176. d, e, Chemical compounds from (c) were tested at 0.5 µM for inhibitory activity in HEK293T cells transfected with STING (e) or RIG-I (f) in conjunction with IFN-• luciferase reporter, respectively. b, e, f, Values of inhibitor-treated cells were normalized to DMSO-treated cells. […] Cytokine levels were normalized to DMSO-treated control cells. A nonlinear regression analysis was performed for cGAMP stimulation. b, c, BMDMs were pre-treated with C-178 (0.25 µM) and stimulated with cGAMP, cyclic di-GMP, CMA, 90mer dsDNA or LPS for 3 h. The induction of Ifnb1 mRNA levels was assessed by RT-qPCR. d, Heatmaps of RNA sequencing analysis of BMDMs treated with DMSO or CMA and with or without addition of C-178. […] Reporter activity was measured 16 h after transfection and values were normalized to DMSO-treated control cells. c, BMDMs were treated with C-178 (0.25 µM) for 1 h, washed or left untreated and after an additional hour stimulated with cGAMP. […] Flag-STING was immunoprecipitated from whole cell lysate and analysed by autoradiography. In parallel, cell lysates were analysed by immunoblotting for p-TBK1 and STING. d, HEK293T cells expressing STING were treated as indicated (C-178 (1 µM)) and stimulated with CMA for 1.5 h. […]

[4] = molecular target: T2, STING; assay: Flag immunoprecipitation, recruitment of TBK1 to STING; format: cell-based; parameters: expressed in transfected cells; host or cells: HEK293T; details: HEK293T expressing Flag-STING; 1 µM; CMA 2 h

O=C(Nc1ccc(I)cc1)c1ccc([N+](=O)[O-])o1 [C-176, N-(4-iodophenyl)-5-nitro-2-furamide]
TBK1-driven IFN induction [1]: neither RIG-I nor TBK1-driven IFN induction was affected | increase in serum concentration of IL-6 [2]: completely abrogated | increase in serum concentration of type I IFNs [2]: completely abrogated | [^3H] palmitate labelling of STING [3]: inhibited | recruitment of TBK1 [4]: block
